Each compound was assayed on 48-Hours PCA (passive cutaneous anaphylaxis) (assay: Test Example 1: Anti-passive cutaneous anaphylaxis (PCA) activity in rats, 48-Hours PCA (Ia compounds)). Conditions: Rattus norvegicus, po, 15 mg/kg, perorally, 1 hour before the elicitation.
Type: in vivo, rat (Wistar strain male)
Procedure: (§1) Anti-passive cutaneous anaphylaxis (PCA) activity in rats (Materials and Method)
(§2) Wistar strain male rats (6 weeks old) were purchased from Shizuoka Experimental Animal Agricultural Cooperative (Japan), habituated to a breeding environment for 1 week before using for the experiment.
(§3) (2) Preparation of antiserum
(§4) Preparation of antiserum was carried out according to the method described in J. Immunol. 106, 1002-1011 (1971).
(§5) Thus, Ascaris suum extract was dinitrophenylated (DNP-As) and infused subcutaneously together with dead Bordetella pertussis at four sites on the foot-pad of the Wistar strain male rats. After 5 days, the rats were boostered with DNP-As (1 mg) at the dorsal muscle for additional sensitization. After 3 days, blood samples were collected and serum was separated which was used as anti DNP-As antiserum. The titer of the antiserum was measured by rats 48-hours PCA and found to be 1:200.
(§6) Rats were sensitized with 35 times dilution of anti DNA-As antiserum administered at two sites in the pre-clipped right dorsal skin. After 48 hours, DNP-As (500 μg in 0.5 % Evans blue-physiological saline (1 ml) was administered into caudal vein to elicit the reaction. Then, 30 minutes later, the animals were decapitated, the dorsal skin was peeled, two sensitized areas as well as one control area were cut off and analyzed for Evans blue exudation which was used as an indivative of the reaction according to the method disclosed in Microbiol. Immunol. 22, 89-101 (1978). Thus, cut skins were treated with 1N-KOH (1 ml) and incubated at 37° C. for 16 hours to dissolve the skin tissue. A mixed solution (9 ml) of 0.6N-phosphoric acid-acetone (5: 13) was added and the mixture was centrifuged (300 r.p.m.) for 15 minutes. The supernatant was assayed for absorption at 620 nm and the exudation of Evans blue was determined. Test compounds (I) of the present invention were administered perorally as a suspension in 0.5% tragacanth 1 hour before the elicitation.

Compound	inhibition in vivo at 15 mg/kg [%]
O=C(Nc1csc(-c2ccc(Cl)cc2)n1)c1nnn[nH]1 [Ia-15, N-(2-(4-chlorophenyl)-4-thiazolyl)-1H-tetrazole-5-carboxamide]	50
Cc1ccccc1-c1nc(NC(=O)c2nnn[nH]2)cs1 [Ia-3, N-(2-(2-methylphenyl)-4-thiazolyl)-1H-tetrazole-5-carboxamide]	78
O=C(Nc1csc(-c2ccc3ccccc3n2)n1)c1nnn[nH]1 [Ia-26, N-(2-(2-quinolyl)-4-thiazolyl)-1H-tetrazole-5-carboxamide]	42
Cc1cccc(-c2nc(NC(=O)c3nnn[nH]3)cs2)c1 [Ia-4, N-(2-(3-methylphenyl)-4-thiazolyl)-1H-tetrazole-5-carboxamide]	39
CC(C)(C)c1ccc(-c2nc(NC(=O)c3nnn[nH]3)cs2)cc1 [Ia-17, N-(2-(4-(1,1-dimethylethyl)phenyl)-4-thiazolyl)-1H-tetrazole-5-carboxamide]	47
Cc1nc(NC(=O)c2nnn[nH]2)cs1 [Ia-1, N-(2-Methyl-4-thiazolyl)-1H-tetrazole-5-carboxamide]	60
O=C(Nc1csc(-c2cccnc2)n1)c1nnn[nH]1 [Ia-23, N-(2-(3-Pyridyl)-4-thiazolyl)-1H-tetrazole-5-carboxamide]	40
O=C(Nc1csc(-c2cccs2)n1)c1nnn[nH]1 [Ia-25, N-(2-(2-thienyl)-4-thiazolyl)-1H-tetrazole-5-carboxamide]	43
CC(C)c1ccc(-c2nc(NC(=O)c3nnn[nH]3)cs2)cc1 [Ia-16, N-(2-(4-(1-methylethyl)phenyl)-4-thiazolyl) 1H-tetrazole-5-carboxamide]	46
COc1ccc(-c2nc(NC(=O)c3nnn[nH]3)cs2)cc1 [Ia-8]	80

Same assay, conditions: Rattus norvegicus, po, 25 mg/kg, perorally, 1 hour before the elicitation

Compound	inhibition in vivo at 25 mg/kg [%]
Cc1ccc(-c2nc(NC(=O)c3nnn[nH]3)cs2)cc1 [Ia-5]	90
Cc1ccc(-c2nc(NC(=O)c3nnn[nH]3)c(C)s2)cc1 [Ia-19, N-(2-(4-methylphenyl)-5-methyl-4-thiazolyl)-1H-tetrazole-5-carboxamide]	61

Same assay, conditions: Rattus norvegicus, po, 50 mg/kg, 1 hour before the elicitation

Compound	inhibition in vivo at 50 mg/kg [%]
COc1ccc(/C=C/C(=O)Nc2ccccc2C(=O)O)cc1OC [Tranilast, reference compound]	0

What follows are compounds tested on 48-Hours PCA (passive cutaneous anaphylaxis) (assay: Test Example 2: Anti-passive cutaneous anaphylaxis (PCA) activity in rats, 48-Hours PCA (Ib compounds)). Conditions: Rattus norvegicus, po, 20 mg/kg, P.O., 1 hour before the elicitation.
Type: in vivo, rat (Wistar strain male)
Procedure: as §1, §2, §3, §4, §5
as §6, with “0.5%” for “0.5 %”

Compound	inhibition in vivo at 20 mg/kg [%]
O=C(Nc1nc(-c2ccc(Cl)cc2)cs1)c1nnn[nH]1 [Ib-7, N-(4-(4-chlorophenyl)-2-thiazolyl)-1H-tetrazole-5-carboxamide]	70
Cc1ccc(-c2csc(NC(=O)c3nnn[nH]3)n2)cc1 [Ib-5, N-(4-(4-Methylphenyl)-2-thiazolyl)-1H-tetrazole-5-carboxamide]	89
Cc1sc(NC(=O)c2nnn[nH]2)nc1-c1ccccc1 [Ib-12, N-(5-methyl-4-phenyl-2-thiazolyl)-1H-tetrazole-5-carboxamide]	51
COc1ccc(-c2csc(NC(=O)c3nnn[nH]3)n2)cc1 [Ib-4]	92
O=C(Nc1nc(-c2ccccc2)cs1)c1nnn[nH]1 [Ib-1, N-(4-phenyl-2-thiazolyl)-1H-tetrazole-5-carboxamide]	66

Same assay, conditions: Rattus norvegicus, po, 30 mg/kg, P.O., 1 hour before the elicitation

Compound	inhibition in vivo at 30 mg/kg [%]
COc1ccc(-c2csc(C(=O)Nc3nnn[nH]3)n2)cc1 [Ib-14, 4-(4-methoxyphenyl)-N (1H-tetrazole-5-yl)-2-thiazolecarboxamide]	50
Cc1ccc(-c2csc(C(=O)Nc3nnn[nH]3)n2)cc1 [Ib-13, 4-(4-Methylphenyl)-N-(1H-tetrazole-5-yl)-2-thiazolecarboxamide]	60

Same assay, conditions: Rattus norvegicus, po, 50 mg/kg, P.O., 1 hour before the elicitation

Compound	inhibition in vivo at 50 mg/kg [%]
COc1ccc(/C=C/C(=O)Nc2ccccc2C(=O)O)cc1OC [Tranilast, reference compound]	0

What follows are compounds tested on 48-Hours PCA (passive cutaneous anaphylaxis) (assay: Test Example 3: Anti-passive cutaneous anaphylaxis (PCA) activity in rats, 48-Hours PCA (Ic compounds)). Conditions: 30 mg/kg, P.O., 1 hour before the elicitation.
Type: in vivo, rat (Wistar strain male)
Procedure: as §1, §2, §3, §4, §5
as §6, with “0.5%” for “0.5 %”, “with” for “with 1N-KOH”, “mil)” for “ml) and”, “0.6 N-phosphoric” for “0.6N-phosphoric”

Compound	Inhibition (%)
COc1ccc(-c2nc(C)c(NC(=O)c3nnn[nH]3)s2)cc1 [Ic-14, N-(2-(4-Methoxyphenyl)-4-methyl-5-thiazolyl)-1H-tetrazole-5-carboxamide]	50
Cc1ccc(-c2nc(C)c(NC(=O)c3nnn[nH]3)s2)cc1 [Ic-13, N-(4-methyl-2-(4-methylphenyl)-5-thiazolyl)-1H-tetrazole-5-carboxamide]	52
COc1ccc(-c2nc(C)c(C(=O)Nc3nnn[nH]3)s2)cc1 [Ic-6, 2-(4-Methoxyphenyl)-4-methyl-N-(1H-tetrazole-5-yl)-5-thiazolecarboxamide]	56
Cc1ccc(-c2nc(C)c(C(=O)Nc3nnn[nH]3)s2)cc1 [Ic-5, 4-methyl-2-(4-methylphenyl)-N-(1H-tetrazole-5-yl)-5-thiazolecarboxamide]	49

Same assay, conditions: 50 mg/kg, P.O., 1 hour before the elicitation

Compound	Inhibition (%)
COc1ccc(/C=C/C(=O)Nc2ccccc2C(=O)O)cc1OC [Tranilast, reference compound]	0

From US4946855A, “Carboxamide derivatives having tetrazole and thiazole rings and their use” (Sawai Pharmaceutical Co., Ltd., priority 1987, dated 1990)
